Laboratory results as given in US20230190774A1, “METHOD OF USING SUBSTRATES OF AKR1Bl/AKR1B10 AS ANTI-CANCER DRUGS” (Beijing Normal University Hong Kong Baptist University …, priority 2015, published 2023).
“Also recorded” adds a separate entry of the source. Where two headings read alike, the source gives them in different places. Where a SMILES comes first, the peptide text is derived from it. The star is where a group is joined. Cbz = O=C(OCc1ccccc1)*

Tests used:
AKR1B10 [1] = molecular target: T1, AKR1B10 (Homo sapiens, UniProt O60218); assay: Enzyme activity assay (NADPH oxidation), purified AKR1B10; type: biochemical; conditions: 20 mM substrate, pH 7.0, 30° C.
T1 sequence (O60218 whole entry): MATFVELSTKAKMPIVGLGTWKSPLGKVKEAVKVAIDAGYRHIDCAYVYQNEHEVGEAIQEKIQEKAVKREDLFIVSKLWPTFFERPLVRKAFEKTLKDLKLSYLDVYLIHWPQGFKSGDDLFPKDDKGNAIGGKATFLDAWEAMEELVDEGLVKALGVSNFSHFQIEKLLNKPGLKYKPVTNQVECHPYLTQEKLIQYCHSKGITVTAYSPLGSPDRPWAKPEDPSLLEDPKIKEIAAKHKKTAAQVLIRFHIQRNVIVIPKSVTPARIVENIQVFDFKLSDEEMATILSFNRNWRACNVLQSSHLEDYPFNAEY
Experimental: Assay of AKR1B1 and AKR1B10 enzymes activities were conducted in 1 ml of the reaction mixture containing 135 mM sodium phosphate buffer (pH 6.2 for AKR1B1 or pH 7.0 for AKR1B10), 0.2 mM NADPH, 0.3 M ammonium sulfate, 2 µg purified protein and 20 mM of their substrate as indicated. The reaction mix was incubated at 30° C. for 30 minutes (min). Protein-free blank controls were included. The decrease of NADPH was monitored by spectrophotometer at 340 nm. Enzyme activity was calculated as the amount of NADPH oxidized/min/mg of protein (Shen Y et al., Chem Biol Interact. 2011, 191(1-3): 192-198).

[2] = for Death Rate / Death/Total: i.v., n=8
Experimental: ICR mice (18-22 g) were acquired from the Laboratory Animal Services Centre, The Chinese University of Hong Kong. These animals were housed in an animal room with 12 h of day and dark cycles, and the temperature maintained at around 25° C. There were 4 male and 4 female in each treatment and control group. They were treated with either diacetyl or glyceraldehyde. Diacetyl and glyceraldehyde were dissolved with saline and administered to the mice by intravenous injection with the amount indicated. […] Mortality was recorded daily for the calculation of […] (LD50). All surviving animals were euthanized with diethyl-ether at the end of the experiment.

AKR1B1 [3] = molecular target: AKR1B1 (Homo sapiens, UniProt P15121); conditions: ND = no detectable activity or less than 32 nmol/min/mg; cited from earlier work
AKR1B10 [4] = molecular target: T1, AKR1B10; conditions: ND = no detectable activity or less than 32 nmol/min/mg; cited from earlier work
HepG2 tumor xenograft = conditions: 80 mg/kg, tail vein, daily for 21 days
Experimental: Six-week-old male BALB/C nude mice were purchased from the Laboratory Animal Unit of the University of Hong Kong. Mice were allowed to acclimate to laboratory conditions for 1 week before cancer cells injection. […] Treatment was initiated when the tumor grew to about 200±100 mm3. […] Mice were randomized and allocated to different groups. They received daily tail vein injection for 3 weeks of one of the following: glyceraldehyde (500 mg/kg body weight); diacetyl (80 mg/kg body weight); or normal saline. Mice were weighted and the sizes of the tumors were measured with calipers every 3 days. Tumor volumes were calculated with the formula: length×width2/2. Animals were humanely killed at the end of the experiment and their tumors were weighed.

HepG2 cells = assay: Cytotoxicity assay (cell survival rate, MTT); type: cell-based; conditions: for Cytotoxicity of AKR1Bs substrate (cell survival rate): substrate alone, 2DG for 72 hours
Experimental: (§1) HepG2 cells, SKOV3 cells, HCT116 cells and CaCo2 cells were cultured in DMEM medium, SW480 cells in 1640 medium, and HT29 cells in McCoy’s 5A medium. All cell culture media were supplemented with 10% FBS, 1% PSN, and cells were cultured in a humidified incubator containing 5% CO2 at 37° C. In cytotoxicity assays, cells were seeded at 1 × 10^5 cells/well in 96 well plates with full medium. In GSH assay and Western blot analysis, cells were seeded at 3× 10^6 cells/well in 6 well plates.
(§2) The AKR1Bs substrates’ cytotoxicity was assessed by cell survival rate using MTT assay. After the cells were treated with the substrates for the length of time indicated, MTT was added to a final concentration of 0.5 mg/ml in each well of a 96-well plate, and the plates were incubated at 37° C. for 4 hour. Then DMSO was added to dissolve the formazan product, the amount of which is proportional to the number of live cells. The absorbance of dissolved dye was measured at 540 nm using an automatic microplate reader.

SKOV3 cells = assay: Cytotoxicity assay (cell survival rate, MTT); type: cell-based; conditions: for Cytotoxicity of AKR1Bs substrate (cell survival rate): substrate alone, 2DG for 72 hours
Experimental: as §1, §2

CaCo2 cells = assay: Cytotoxicity assay (cell survival rate, MTT); type: cell-based
Experimental: as §1, §2

HCT116 cells = assay: Cytotoxicity assay (cell survival rate, MTT); type: cell-based
Experimental: as §1, §2

HT29 cells = assay: Cytotoxicity assay (cell survival rate, MTT); type: cell-based
Experimental: as §2, with “HepG2 cells, SKOV3 cells, HCT116 cells and CaCo2 cells were cultured in DMEM medium, SW480 cells in 1640 medium, and HT29 cells in McCoy’s 5A medium. […] In cytotoxicity assays, cells were seeded at 1 × 10^5 cells/well in 96 well plates with full medium. In GSH assay and Western blot analysis, cells were seeded at 3× 10^6 cells/well in 6 well plates. The AKR1Bs” for “The AKR1Bs”

SW480 cells = assay: Cytotoxicity assay (cell survival rate, MTT); type: cell-based
Experimental: as §2, with “HepG2 cells, SKOV3 cells, HCT116 cells and CaCo2 cells were cultured in DMEM medium, SW480 cells in 1640 medium, and HT29 cells in McCoy’s 5A medium. […] In cytotoxicity assays, cells were seeded at 1 × 10^5 cells/well in 96 well plates with full medium. In GSH assay and Western blot analysis, cells were seeded at 3× 10^6 cells/well in 6 well plates. The AKR1Bs” for “The AKR1Bs”

AKR1B10 [5] = assay: Western blot of AKR1B10 protein level in treated cells; type: cell-based, human
Experimental: as §1
(§3) Cells were lysed on ice with the protein extraction reagent. Total protein (30 µg) per sample were loaded onto 10% SDS-polyacrylamide gels and separated at 75V, and then electrotransferred to polyvinylidene difluoride (PVDF) membranes overnight at 15 V. Membranes were then soaked in 5% nonfat milk in TBS at room temperature for 1 hour and then incubated with rabbit anti-AKR1B1 antibodies (1:3000) or rabbit anti-AKR1B10 antibodies (1:3000) at room temperature for 2 hours. After being washed, the membranes were incubated in HRP-conjugated goat anti-rabbit or goat anti-mouse IgG secondary antibodies (1:5000) for 1 hour at room temperature, followed by washing and incubation with ECL reagents for 1 min. β-actin monoclonal mouse antibodies (1:5000) was used as reference to assess the relative amounts of proteins loaded per lane.

AKR1B1 [6] = assay: Western blot of AKR1B1 protein level in treated cells; type: cell-based, human
Experimental: as §1, §3

[7] = substrate alone, 2DG for 72 hours
[8] = pretreated 24 hours before addition of 2DG
[9] = BSO (0.3 mM) with 1.25/0.625 mM substrate, NAC with 2.5/1.25 mM substrate
[10] = BSO with 1.25/0.625 mM substrate, NAC with 2.5/1.25 mM substrate

CC(=O)C(C)=O [Diacetyl, diacetyl]
Efficiency as substrate of AKR1B10 (rate of NADPH depletion) (AKR1B10 [1]): better substrate for AKR1B10 than for AKR1B1; also recorded: best substrate | LD50 ([2]; ICR mice, intravenous injection daily for 14 days): 410 mg/kg BW | Death Rate ([2]; dose 300 mg/kg BW): 0% | Death/Total ([2]; dose 300 mg/kg BW): 0/8 | Death Rate ([2]; dose 360 mg/kg BW): 37.5% | Death/Total ([2]; dose 360 mg/kg BW): ⅜ | Death Rate ([2]; dose 432 mg/kg BW): 62.5% | Death/Total ([2]; dose 432 mg/kg BW): ⅝ | Death Rate ([2]; dose 518 mg/kg BW): 87.5% | Death/Total ([2]; dose 518 mg/kg BW): ⅞ | Death Rate ([2]; dose 622 mg/kg BW): 100.0% | Death/Total ([2]; dose 622 mg/kg BW): 8/8 | AKR1B1 activity, amount of NADPH (nmol) oxidized per min per mg of protein (AKR1B1 [3]): 725 nmol/min/mg | AKR1B10 activity, amount of NADPH (nmol) oxidized per min per mg of protein (AKR1B10 [4]): 2329 nmol/min/mg | Tumor volume (HepG2 tumor xenograft): significantly reduced | Tumor weight (HepG2 tumor xenograft): significantly reduced | Cytotoxicity of AKR1Bs substrate (cell survival rate) (HepG2 cells): dose-dependently and preferentially kill | Cytotoxicity of AKR1Bs substrate (cell survival rate) (HepG2 cells; listed as diacetyl): dose dependently and preferentially kill | Cytotoxicity of AKR1Bs substrate (cell survival rate) (SKOV3 cells): dose-dependently and preferentially kill | Cytotoxicity of AKR1Bs substrate (cell survival rate) (SKOV3 cells; listed as diacetyl): dose dependently and preferentially kill | Cytotoxicity of AKR1Bs substrate (cell survival rate) (CaCo2 cells; [7]): dose dependently and preferentially kill | Cytotoxicity of AKR1Bs substrate (cell survival rate) (HCT116 cells; [7]): dose dependently and preferentially kill | Cytotoxicity of AKR1Bs substrate (cell survival rate) (HT29 cells; [7]): more resistant | Cytotoxicity of AKR1Bs substrate (cell survival rate) (SW480 cells; [7]): more resistant

CC(C)C[C@@H](C=O)NC(=O)[C@H](CC(C)C)NC(=O)[C@H](CC(C)C)NC(=O)OCc1ccccc1 [MG-132] (Cbz-Leu-Leu-Leu-aldehyde)
AKR1B10 protein level (western blot) (AKR1B10 [5]; HT29 cells): able to increase | AKR1B10 protein level (western blot) (AKR1B10 [5]; SW480 cells): able to increase | AKR1B1 protein level (western blot) (AKR1B1 [6]; HT29 cells): able to increase | AKR1B1 protein level (western blot) (AKR1B1 [6]; SW480 cells): able to increase | Sensitivity to 2DG after pretreatment (HT29 cells; [8]): significantly more cells were killed by 2DG | Sensitivity to 2DG after pretreatment (SW480 cells; [8]): significantly more cells were killed by 2DG

CC(=O)C=O [Methyglyoxal]
AKR1B1 activity, amount of NADPH (nmol) oxidized per min per mg of protein (AKR1B1 [3]): 942 nmol/min/mg | AKR1B10 activity, amount of NADPH (nmol) oxidized per min per mg of protein (AKR1B10 [4]): 7458 nmol/min/mg

CC(=O)N[C@@H](CS)C(=O)O [NAC, N-acetyl-cysteine]
Effect on toxicity of glyceraldehyde and diacetyl (HepG2 cells; [9]): able to protect the cells | Effect on toxicity of glyceraldehyde and diacetyl (SKOV3 cells; [9]): able to protect the cells | Effect on toxicity of glyceraldehyde and diacetyl (CaCo2 cells; [10]): able to protect the cells | Effect on toxicity of glyceraldehyde and diacetyl (HCT116 cells; [10]): able to protect the cells

O=Cc1ccccn1 [Pyridine-2-aldehyde]
AKR1B1 activity, amount of NADPH (nmol) oxidized per min per mg of protein (AKR1B1 [3]): 632 nmol/min/mg | AKR1B10 activity, amount of NADPH (nmol) oxidized per min per mg of protein (AKR1B10 [4]): 4645 nmol/min/mg

O=Cc1ccc([N+](=O)[O-])cc1 [p-Nitrobenzaldehyde]
AKR1B1 activity, amount of NADPH (nmol) oxidized per min per mg of protein (AKR1B1 [3]): 760 nmol/min/mg | AKR1B10 activity, amount of NADPH (nmol) oxidized per min per mg of protein (AKR1B10 [4]): 4480 nmol/min/mg
